The values below come from patent publication US9408828B2, “(+)-3′-angeloyloxy-4′-keto-3′,4′-dihydroseselin for treating inflammation” (Hong Kong Baptist University, priority 2014, dated 2016).

The test system of this experiment is DSS-induced colitis. The experiment can be described thus: Chronic DSS-induced colitis in mice (body weight, DAI, colon length, histology). It is filed as in vivo, C57BL/6 mice. The settings on record: sulfasalazine (positive control) 300 mg/kg/day for seven days. The source says: 6-week-old male C57BL/6 mice weighing 18-20 g are purchased from the Laboratory Animal Services Center, the Chinese University of Hong Kong. The study protocols are approved by the committee for Care of Laboratory Animals in the School of Chinese Medicine at the Hong Kong Baptist University. The animals are divided into six groups (8-10 each group): control group (mice received drinking water and control diet), DSS-treated group (mice received 2.0% DSS in drinking and control diet), positive control group (mice received 2.0% DSS in drinking and ip, 300 mg/kg/day of sulfasalazine), Pd-Ib treatment groups will be given different dosed of Pd-Ib (mice received 2.0% DSS in drinking and i.p., 30, 60, or 120 mg/kg/day, respectively). As depicted in experiment design shown in FIG. 9, the mice are given tap water for 6 days, and then be divided into 6 groups. DSS is dissolved in distilled water at a concentration of 2% (w/v) and administered to the mice. The first day and the last day of DSS treatment are designated as day 7 and day 11, respectively. Mice are marked and checked daily for body weight. On day 12, body weight, stool consistency, and gross bleeding of each mouse are assessed, and animals showing body weight loss, diarrhea, and bleeding are selected for further analysis. All colitis mice are then interventions once daily for seven days, with eight mice in each group. The DSS model group is administered with tap water as negative control; while sulfasalazine is given as positive control (i.p., 300 mg/kg/day) and Pd-Ib treatment groups are given different doses of Pd-Ib (i.p., 30, 60, or 120 mg/kg/day, respectively). In parallel, a vehicle control group is also set up to receive drinking tap water without DSS throughout the entire experimental period. On day 19, after the mice are killed under anesthesia induced by pentobarbital sodium (i.p., 0.65 g/kg), the length of the large intestine is measured. All portions are stored at −80° C. for biochemical assays. The DAI is determined by scoring changes in the body weight, diarrhea, colon length, and bleeding. In brief, body weight, stool consistency, colon length and bleeding in the stool are monitored daily for determination of DAI. At the end of the experiment, mice are killed, and the colon is dissected from each mouse, and the length of which is measured from the ileocecal junction to the anal verge. The colons are opened longitudinally, gently washed with ice-cold PBS, fixed in 4% paraformaldehyde overnight, and embedded in paraffin. Five-micro-meter sections are stained with hematoxylin/eosin according to a standard procedure to evaluate colonic damage. Colitis is induced in all groups except the control group. Pd-Ib and sulfasalazine are administered to mice from day 6 to day 12. The change in body weight is taken as the difference between the body weight before induction of colitis and that immediately before sacrifice on day 13. The DAI score is determined by combining scores of (i) body weight loss, (ii) stool consistency, and (iii) stool bleeding. On day 13, the mice are sacrificed, and the colon lengths are measured. Data are expressed as mean±SEM, n=8 (^###p<0.001, compared with the control group; *p<0.05, **p<0.01, ***p<0.001, compared with DSS model group).

Regarding `O=C(O)c1cc(/N=N/c2ccc(S(=O)(=O)Nc3ccccn3)cc2)ccc1O` [sulfasalazine, Sulfasalazine, reference compound], the “histological manifestation of colon tissue sections” value is listed as “significantly decrease the damage of colon tissues”.
